Results on 20 compounds are retold here after patent US20250051319A1 (AUGUSTINE THERAPEUTICS, priority 2021, published 2025).

Each structure is given as a SMILES string.

Assay [1] has as its target T1, human full-length recombinant HDAC1 (Homo sapiens (Human), UniProt Q13547). In words: HDAC1 enzymatic activity assay (Reaction Biology Corporation, RHKKAc fluorogenic peptide). The note with it: Reaction Biology Corporation protocol, RHKKAc fluorogenic peptide 10 μM; read-out: HDAC1 biochem. Type of assay: biochemical. As for the experimental part: (§1) Dose response testing of HDAC6 and HDAC 1 were run at Reaction Biology Corporation (RBC). Inhibition of HDAC enzymes was performed using N-terminal GST tagged human full-length recombinant HDAC6 (H88-30G, SignalChem) and C-terminal FLAG His tag human full-length recombinant HDAC1 produced in insect cells (KDA-21-365, RBC). Enzyme reactions were run in 50 mM Tris-HCl, pH8.0, 137 mM NaCl, 2.7 mM KCl, and 1 mM MgCl2 with 1 mg/ml BSA, 1% DMSO freshly added. 2× enzyme was delivered in the wells of the reaction plate except for the “no enzyme” control wells. In the latter, buffer was added. Compounds in 100% DMSO were delved into the enzyme mixture by acoustic technology (Echo550). Plates are spun down and compounds were incubation with the enzyme for 10 min at room temperature. 2× Fluorogenic peptide from p53 residues 379-382 (RHKKAc, 10 μM final concentration) was added in all wells to initiate the reaction, followed by 1 h incubation at 30° C. Developer containing Trichostatin A was added to stop the reaction and generate fluorescent color. A kinetic measurement was carried out for 20 min with 5 min interval on the Envision plate reader (Perkin Elmer, Ex/Em=360/460). End point reading i.e., plateau of the development reaction was used for analysis. Data was reported by RBC as percentage enzyme activity. Percentage inhibition was calculated by subtracting percentage enzyme activity from 100. IC50 values were calculated using GraphPad Prism 9 based on the log(inhibitor) vs. response—Variable slope (four parameters) equation.

Assay [2] addresses catalytic domain 2 (CD2) of HDAC6 (Homo sapiens (Human), UniProt Q9UBN7). In words: Cellular target engagement assay - NanoBRET. Type of assay: cell-based. The note with it: NanoLuc-HDAC6(CD2) in HEK293T cells, 2 hours, read-out: IC50 (HDAC6(CD2) interaction).
In assay [3] the target is T2, human full-length recombinant HDAC6 (Homo sapiens (Human), UniProt Q9UBN7). The assay is described as follows: HDAC6 enzymatic activity assay (Reaction Biology Corporation, RHKKAc fluorogenic peptide). The settings on record: Reaction Biology Corporation protocol, RHKKAc fluorogenic peptide 10 μM; read-out: HDAC6 biochem. Type of assay: biochemical. As for the experimental part:
as §1

Assay [4] concerns the target T2, human full-length recombinant HDAC6. In words: HDAC6 enzymatic activity assay (alternative protocol, Ac-Gly-Ala-Lys(Ac)-AMC). The settings on record: 5 nM enzyme, read-out: HDAC6 biochem. Type of assay: biochemical. As for the experimental part: (§2) Inhibition of HDAC enzymes was performed in 384-well plate format using human full-length recombinant HDAC1 and HDAC6, isolated from a baculovirus expression system in Sf9 cells (BPS Bioscience). Reaction buffer for HDAC1 contained 50 mM Tris HCl pH 8.0, 137 mM NaCl, 2.7 mM KCl, 1 mM MgCl2, 0.1 mg/mL BSA, and reaction buffer for HDAC6 contained 50 mM Tris/HCl, pH 8.0, 137 mM NaCl, 2.7 mM KCl, 250 μM EDTA, 1 mM DTT, 0.1 mg/mL BSA. Compounds (dissolved in 100% DMSO) or DMSO (vehicle) were diluted in assay buffer at 3× final assay concentration and then added to assay plates. SAHA ([…]) was used as a positive control. 3× final assay concentration of recombinant enzymes (final assay concentration is 4 nM and 5 nM for HDAC1 and HDAC6, respectively) were preincubated for 10 minutes with test compounds at room temperature. Afterwards, 3× final assay concentration of an acetylated fluorogenic peptide (Ac-Gly-Ala-Lys(Ac))-AMC, Bachem; final assay concentration is 12 µM and 40 µM for HDAC1 and HDAC6, respectively) was added to assay plate, allowing deacetylase reactions to incubate for 60 minutes at room temperature. The developer reagent containing 5 μM SAHA and 50 μM trypsin was added to stop the deacetylase reaction and generate AMNC-fluorescence. 15 minutes after addition of developer reagent, endpoint measurements were taken using CLARIOstar (BMG Labtech) plate reader (excitation/emission: 360/450). Fluorescence signals were normalized for each plate using GraphPad Prism software: reaction HDAC-substrate in presence of DMSO was set to 100% while reaction HDAC-substrate in presence of 10 μM SAHA was set to 0%.

The target in assay [5] is T1, human full-length recombinant HDAC1. The assay is described as follows: HDAC1 enzymatic activity assay (alternative protocol, Ac-Gly-Ala-Lys(Ac)-AMC). In kind it is biochemical. The note with it: 4 nM enzyme, read-out: HDAC1 biochem. As for the experimental part:
as §2

Sequence of catalytic domain 2 (CD2) of HDAC6 (Q9UBN7 482-800): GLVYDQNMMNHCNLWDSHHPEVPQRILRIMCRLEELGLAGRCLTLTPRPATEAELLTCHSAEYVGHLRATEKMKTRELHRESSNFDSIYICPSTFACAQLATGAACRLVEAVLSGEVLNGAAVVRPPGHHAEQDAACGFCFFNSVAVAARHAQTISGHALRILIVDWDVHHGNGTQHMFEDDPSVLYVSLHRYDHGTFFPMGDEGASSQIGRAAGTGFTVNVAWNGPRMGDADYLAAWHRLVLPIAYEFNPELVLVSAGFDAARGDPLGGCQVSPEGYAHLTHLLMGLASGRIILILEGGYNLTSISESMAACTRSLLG
T1 sequence (Q13547 whole entry): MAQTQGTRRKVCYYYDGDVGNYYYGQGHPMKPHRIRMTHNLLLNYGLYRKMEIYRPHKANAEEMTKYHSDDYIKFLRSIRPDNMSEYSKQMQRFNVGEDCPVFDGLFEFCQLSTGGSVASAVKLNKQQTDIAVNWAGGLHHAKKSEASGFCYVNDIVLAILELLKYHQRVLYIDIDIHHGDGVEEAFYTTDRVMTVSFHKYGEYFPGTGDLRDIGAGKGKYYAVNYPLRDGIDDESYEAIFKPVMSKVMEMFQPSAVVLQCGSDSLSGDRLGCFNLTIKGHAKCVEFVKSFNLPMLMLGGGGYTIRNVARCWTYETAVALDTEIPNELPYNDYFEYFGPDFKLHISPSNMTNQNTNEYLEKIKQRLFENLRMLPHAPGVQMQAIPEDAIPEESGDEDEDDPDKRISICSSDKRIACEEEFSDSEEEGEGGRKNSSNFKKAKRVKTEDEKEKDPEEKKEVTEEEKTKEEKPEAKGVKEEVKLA
T2 sequence (Q9UBN7 whole entry): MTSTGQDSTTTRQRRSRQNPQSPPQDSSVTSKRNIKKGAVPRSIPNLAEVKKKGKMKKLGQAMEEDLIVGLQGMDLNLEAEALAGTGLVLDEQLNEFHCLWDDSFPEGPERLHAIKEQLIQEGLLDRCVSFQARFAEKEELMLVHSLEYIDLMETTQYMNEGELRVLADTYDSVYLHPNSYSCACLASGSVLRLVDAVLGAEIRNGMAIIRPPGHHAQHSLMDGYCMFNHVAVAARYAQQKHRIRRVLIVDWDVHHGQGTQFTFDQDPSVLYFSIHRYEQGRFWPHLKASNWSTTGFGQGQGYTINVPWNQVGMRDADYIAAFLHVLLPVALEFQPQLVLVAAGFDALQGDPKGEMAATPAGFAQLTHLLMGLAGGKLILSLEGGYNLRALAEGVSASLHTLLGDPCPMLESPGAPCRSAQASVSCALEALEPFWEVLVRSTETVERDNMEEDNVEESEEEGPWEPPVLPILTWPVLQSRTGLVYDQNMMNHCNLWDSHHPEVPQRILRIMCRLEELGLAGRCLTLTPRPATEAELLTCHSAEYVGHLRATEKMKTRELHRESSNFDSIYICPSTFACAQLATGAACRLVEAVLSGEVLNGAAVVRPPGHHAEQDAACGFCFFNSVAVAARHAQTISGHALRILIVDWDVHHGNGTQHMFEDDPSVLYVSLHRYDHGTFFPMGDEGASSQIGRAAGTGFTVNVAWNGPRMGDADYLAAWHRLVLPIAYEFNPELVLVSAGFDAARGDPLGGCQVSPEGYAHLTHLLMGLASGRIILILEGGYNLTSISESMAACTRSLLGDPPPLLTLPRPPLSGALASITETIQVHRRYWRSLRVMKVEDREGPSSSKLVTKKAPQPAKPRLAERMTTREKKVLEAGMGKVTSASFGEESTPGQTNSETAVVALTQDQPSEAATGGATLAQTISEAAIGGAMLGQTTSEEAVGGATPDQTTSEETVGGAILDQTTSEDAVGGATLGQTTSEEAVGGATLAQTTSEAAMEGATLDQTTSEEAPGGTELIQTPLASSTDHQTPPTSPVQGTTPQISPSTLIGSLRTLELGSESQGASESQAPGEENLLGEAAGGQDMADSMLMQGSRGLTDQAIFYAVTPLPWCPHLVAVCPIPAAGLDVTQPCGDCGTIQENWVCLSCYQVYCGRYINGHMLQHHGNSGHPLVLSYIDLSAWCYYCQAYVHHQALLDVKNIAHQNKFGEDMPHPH

In the case of `Cn1cc2c(SCC(=O)c3ccc(CNC(=O)CO)s3)nc(C(F)(F)F)nc2n1` [Compound 61, 2-hydroxy-N-((5-(2-((2-methyl-6-(trifluoromethyl)-2H-pyrazolo[3,4-d]pyrimidin-4-yl)thio)acetyl)thiophen-2-yl)methyl)acetamide], the IC50 in assay [1] is > 10000 nM; in assay [2] it was ≤ 100 nM; in assay [3], ≤ 100 nM.
As to `Cc1nc(SCC(=O)c2ccc(CNC(=O)CO)s2)c2cccnc2n1` [Compound 64, 2-hydroxy-N-((5-(2-((2-methylpyrido[2,3-d]pyrimidin-4-yl)thio)acetyl)thiophen-2-yl)methyl)acetamide], the IC50 was > 10000 nM in assay [1], ≤ 100 nM in assay [2] and ≤ 100 nM in assay [3].
On to `Cn1cc2c(SCC(=O)c3ccc(CNC(=O)CO)s3)nc(C(F)F)nc2n1` [Compound 69, N-((5-(2-((6-(difluoromethyl)-2-methyl-2H-pyrazolo[3,4-d]pyrimidin-4-yl)thio)acetyl)thiophen-2-yl)methyl)-2-hydroxyacetamide], for which the IC50 in assay [2] is 100 to 500 nM; in assay [3] it was ≤ 100 nM.
For the compound `O=C(CO)NCc1ccc(C(=O)CSc2nc3cc(C(F)(F)F)ncc3o2)s1` [Compound 71, 2-hydroxy-N-((5-(2-((6-(trifluoromethyl)oxazolo[5,4-c]156yrrolid-2-yl)thio)acetyl)thiophen-2-yl)methyl)acetamide], the values for the IC50 in assay [1], in assay [2] and in assay [3] were 1000 to 10000 nM, ≤ 100 nM and ≤ 100 nM, respectively.
As for `O=C(CO)NCc1ccc(C(=O)CSc2nc3nc(C(F)(F)F)ccc3o2)s1` [Compound 72, 2-hydroxy-N-((5-(2-((5-(trifluoromethyl)oxazolo[4,5-b]156yrrolid-2-yl)thio)acetyl)thiophen-2-yl)methyl)acetamide], the IC50 in assay [1] is 500 to 1000 nM; in assay [2] it was ≤ 100 nM; in assay [3] it was ≤ 100 nM.
On to `Cc1nc(SCC(=O)c2ccc(CNC(=O)CO)s2)c2cc(Cl)c(F)cc2n1` [Compound 73, N-((5-(2-((6-chloro-7-fluoro-2-methylquinazolin-4-yl)thio)acetyl)thiophen-2-yl)methyl)-2-hydroxyacetamide], for which the IC50 is > 10000 nM in assay [1], ≤ 100 nM in assay [2] and ≤ 100 nM in assay [3].
As to `Cn1ncc2c(SCC(=O)c3ccc(CNC(=O)CO)s3)nc(C(F)(F)F)nc21` [Compound 74, 2-hydroxy-N-((5-(2-((1-methyl-6-(trifluoromethyl)-1H-pyrazolo[3,4-d]pyrimidin-4-yl)thio)acetyl)thiophen-2-yl)methyl)acetamide], the IC50 in assay [1] was > 10000 nM; in assay [2], ≤ 100 nM; in assay [3], ≤ 100 nM.
As to `COc1cc2c(SCC(=O)c3ccc(CNC(=O)CO)s3)nc(C)nc2cc1F` [Compound 75, N-((5-(2-((7-fluoro-6-methoxy-2-methylquinazolin-4-yl)thio)acetyl)thiophen-2-yl)methyl)-2-hydroxyacetamide], the IC50 in assay [1] is > 10000 nM.
Turning to `Cc1nc(SCC(=O)c2ccc(CNC(=O)CO)s2)c2cc(C(F)(F)F)ccc2n1` [Compound 76, 2-hydroxy-N-((5-(2-((2-methyl-6-(trifluoromethyl)quinazolin-4-yl)thio)acetyl)thiophen-2-yl)methyl)acetamide], the IC50 was > 10000 nM in assay [1], ≤ 100 nM in assay [2] and ≤ 100 nM in assay [3].
For `O=C(CO)NCc1ccc(C(=O)CSc2nc(C(F)(F)F)nc3nn(C4CC4)cc23)s1` [Compound 79, N-((5-(2-((2-cyclopropyl-6-(trifluoromethyl)-2H-pyrazolo[3,4-d]pyrimidin-4-yl)thio)acetyl)thiophen-2-yl)methyl)-2-hydroxyacetamide], the IC50 in assay [1] is > 10000 nM; in assay [2], ≤ 100 nM; in assay [3] it was ≤ 100 nM.
On to `COc1cc(F)c2nc(C)nc(SCC(=O)c3ccc(CNC(=O)CO)s3)c2c1` [Compound 108, N-((5-(2-((8-fluoro-6-methoxy-2-methylquinazolin-4-yl)thio)acetyl)thiophen-2-yl)methyl)-2-hydroxyacetamide], for which the IC50 in assay [2] was 100 to 500 nM; in assay [3], ≤ 100 nM.
As for `COc1ccc2nc(C)nc(SCC(=O)c3ccc(CN(C)C(=O)CO)s3)c2c1` [Compound 109, 2-hydroxy-N-((5-(2-((6-methoxy-2-methylquinazolin-4-yl)thio)acetyl)thiophen-2-yl)methyl)-N-methylacetamide], the IC50 in assay [2] was 500 to 1000 nM; in assay [3], ≤ 100 nM.
The corresponding values for `CN(Cc1ccc(C(=O)CSc2nc(C(F)(F)F)nc3nn(C)cc23)s1)C(=O)CO` [Compound 116, 2-hydroxy-N-methyl-N-((5-(2-((2-methyl-6-(trifluoromethyl)-2H-pyrazolo[3,4-d]pyrimidin-4-yl)thio)acetyl)thiophen-2-yl)methyl)acetamide] are 100 to 500 nM and ≤ 100 nM.
The matching figures for `Cc1nc(SCC(=O)c2ccc(CNC(=O)CO)s2)c2ncccc2n1` [Compound 153, 2-hydroxy-N-((5-(2-((2-methylpyrido[3,2-d]pyrimidin-4-yl)thio)acetyl)thiophen-2-yl)methyl)acetamide]: ≤ 100 nM and ≤ 100 nM.
The matching figures for `COc1cc2c(SCC(=O)c3ccc(CNC(=O)CO)s3)nc(C(F)(F)F)nc2cn1` [Compound 154, 2-hydroxy-N-((5-(2-((6-methoxy-2-(trifluoromethyl)pyrido[3,4-d]pyrimidin-4-yl)thio)acetyl)thiophen-2-yl)methyl)acetamide]: ≤ 100 nM and ≤ 100 nM.
With `COc1ccc2nc(C)nc(SCC(=O)c3ccc(CNC(=O)CO)s3)c2c1F` [Compound 158, N-((5-(2-((5-fluoro-6-methoxy-2-methylquinazolin-4-yl)thio)acetyl)thiophen-2-yl)methyl)-2-hydroxyacetamide], the IC50 in assay [2] and in assay [3] was ≤ 100 nM in each case.
For the compound `COc1cc2c(SCC(=O)c3ccc(CN(C)C(=O)CO)s3)nc(C(F)(F)F)nc2cn1` [Compound 159, 2-hydroxy-N-((5-(2-((6-methoxy-2-(trifluoromethyl)pyrido[3,4-d]pyrimidin-4-yl)thio)acetyl)thiophen-2-yl)methyl)-N-methylacetamide], the IC50 in assay [2] and in assay [3] was ≤ 100 nM each time.
On to `CCOc1cnc2nc(C)nc(SCC(=O)c3ccc(CNC(=O)CO)s3)c2c1` [Compound 160, N-((5-(2-((6-ethoxy-2-methylpyrido[2,3-d]pyrimidin-4-yl)thio)acetyl)thiophen-2-yl)methyl)-2-hydroxyacetamide], for which the IC50 in assay [2] and in assay [3] was ≤ 100 nM each time.
Take `COc1cnc2nc(C(F)F)nc(SCC(=O)c3ccc(CNC(=O)CO)s3)c2c1` [Compound 164, N-((5-(2-((2-(difluoromethyl)-6-methoxypyrido[2,3-d]pyrimidin-4-yl)thio)acetyl)thiophen-2-yl)methyl)-2-hydroxyacetamide]: the IC50 in assay [2] and in assay [3] was ≤ 100 nM in each case.
In the case of `Cc1nnc(SCC(=O)c2ccc(CNC(=O)C(C)(C)C)s2)c2ccccc12` [Example 194, N-((5-(2-((4-methylphthalazin-1-yl)thio)acetyl)thiophen-2-yl)methyl)pivalamide], the IC50 in assay [4] was ≤ 100 nM; in assay [5] it was > 10000 nM; in assay [2], 100 to 500 nM.
